Data taken from publication PMC5330258 (Journal of medicinal chemistry, 2016).
Read-outs that look alike come from different tables or passages of the source.

Columns and labels:
SKMEL-188 melanoma cells = assay: Antiproliferative activity on melanoma cells; format: cell-based; settings: compared with parent compounds and 1,25(OH)2D3
VDR = molecular target: T1, VDR (Homo sapiens, UniProt P11473); assay: Lentiviral VDRE-luciferase transcriptional reporter assay; format: cell-based; settings: for VDR activation (in words): concentration up to 1000 nM, all three cell lines (HaCaT, Caco-2, Jurkat); for EC50: 24 h, NS: no significance
T1 sequence (P11473 1-427): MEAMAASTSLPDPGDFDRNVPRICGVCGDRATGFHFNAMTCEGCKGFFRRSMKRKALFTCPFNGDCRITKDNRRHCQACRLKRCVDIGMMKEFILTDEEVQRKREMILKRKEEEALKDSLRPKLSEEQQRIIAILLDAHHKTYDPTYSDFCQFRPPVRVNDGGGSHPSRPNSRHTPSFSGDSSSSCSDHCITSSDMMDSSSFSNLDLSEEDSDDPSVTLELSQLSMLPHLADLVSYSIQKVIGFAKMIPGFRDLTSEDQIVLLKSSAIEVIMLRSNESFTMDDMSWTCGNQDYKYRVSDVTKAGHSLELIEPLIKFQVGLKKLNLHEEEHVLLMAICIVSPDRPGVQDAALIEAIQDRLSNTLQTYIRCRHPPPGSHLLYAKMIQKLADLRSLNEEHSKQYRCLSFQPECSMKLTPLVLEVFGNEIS

[1] = cited from earlier work

C=C1/C(=C\C=C2/CCC[C@@]3(C)[C@H]2CC[C@@H]3[C@@](C)(O)C[C@@H](O)CC(C)C)C[C@@H](O)C[C@@H]1O [18b, 1α,20S,23S(OH)3D3]
Maximal inhibition values (in words) (SKMEL-188 melanoma cells): higher maximal inhibition values

C=C1/C(=C\C=C2/CCC[C@@]3(C)[C@H]2CC[C@@H]3[C@@](C)(O)C[C@H](O)CC(C)C)C[C@@H](O)C[C@@H]1O [18a, 1α,20S,23R(OH)3D3]
EC50 in Jurkat cells relative to that of 18b (VDR; Jurkat cells): six times lower
Maximal inhibition values (in words) (SKMEL-188 melanoma cells): higher maximal inhibition values

C=C1CC[C@H](O)C/C1=C/C=C1\CCC[C@@]2(C)[C@H]1CC[C@@H]2[C@@](C)(O)C[C@H](O)CC(C)C [17a, 20S,23R(OH)2D3]
VDR activation (in words) (VDR): strong stimulatory effect

C=C1CC[C@H](O)C/C1=C/C=C1\CCC[C@@]2(C)[C@H]1CC[C@@H]2[C@@](C)(O)C[C@@H](O)CC(C)C [17b, 20S,23S-dihydroxyvitamin D3]
VDR activation (in words) (VDR): unable to activate VDR
EC50 (VDR; read-out: VDRE activation (EC50, nM) Caco-2, Caco-2 cells): > 1000 nM
EC50 (VDR; read-out: VDRE activation (EC50, nM) HaCaT, HaCaT cells): > 1000 nM
EC50 (VDR; read-out: VDRE activation (EC50, nM) Jurkat, Jurkat cells): > 1000 nM

C=C1/C(=C\C=C2/CCC[C@]3(C)[C@@H]([C@H](C)CCCC(C)(C)O)CC[C@@H]23)C[C@@H](O)C[C@@H]1O [1,25(OH)2D3, 1α,25-dihydroxyvitamin D3]
Calcemic effect ([1]; rats and mice): causes hypercalcemia

C=C1CC[C@H](O)C/C1=C/C=C1\CCC[C@@]2(C)[C@H]1CC[C@@H]2[C@@](C)(O)CCCC(C)C [20S(OH)D3, 20S-hydroxyvitamin D3]
Calcemic effect ([1]; doses up to 30 μg/kg in mice): noncalcemic
